Assay results as given in US11998610B2, “Conjugates and methods of using the same” (Flagship Pioneering Innovations V, Inc., priority 2018, dated 2024).

Columns and labels:
[1] = tested on: E. coli CFT073 ATCC 700928 and/or E. coli Nissle 1917; experiment: Cell-based assay with ClbP with LCMS, ClbP positive strain
Method in brief: (§1)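 Compound (10 μM final) incubated 20 h at 37° C, aerobically, with 1:40-diluted overnight cultures of ClbP-positive E. coli or negative BL21(DE3), in duplicate, alongside uninoculated LB. Remaining parent quantified by LC-MS/MS (MRM) after acetonitrile quench, expressed as percent of media-alone.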

[2] = tested on: E. coli BL21(DE3); experiment: Payload release in the presence of fecal matter, ClbP negative E. coli; format: cell-based; conditions: 10 μM compound, anaerobic, 37° C., 20 h, LCMS
Excerpt: (§2) This example is representative of the methods described in Example 103. Fecal samples were subjected to metagenomic whole-genome shotgun sequencing followed by querying the dataset for the presence of the clbP gene or by attempting to amplify the gene with primers specific for it by qPCR. Samples that gave a signal below the detection limit were used in subsequent steps. The fecal sample was resuspended as a 15% (w/v) slurry in Anaerobic Phosphate Buffer Saline.
(§3) Following steps 1 and 2 as detailed in Example 98, E. coli CFT073 ATCC 700928, E. coli Nissle 1917, or E. coli BL21(DE3) were grown in liquid culture.
(§4) In an anaerobic chamber, the E. coli strains were added to the fecal samples obtained in step 1 at a dilution level calculated to represent 0, 1, 10, 50, 90, 99, or 100% of all organisms present in PRAS dilution blank on a 200 μL volume. The test compound (10 μM final concentration) was added to the mixture. The test compound was also added to a bacteria-free media control under similar conditions. The plate was sealed and incubated at 37° C. for 20 h. Under similar conditions, a standard curve of both the starting material and the payload compound was made in bacteria-free media.
(§5) After 20 h, an aliquot was tested for breakdown and release of a payload by LCMS by diluting serially to a final dilution of 1:100 first with Acetonitrile (10× dilution) and then with (1:1) Mobile Phase A-0.1% Formic Acid in Water:Mobile Phase B-0.1% Formic acid in Acetonitrile (1 OX dilution), with absolute quantification compared to the external standard curve. In an ideal case, the amount of payload released in the reaction(s) with ClbP-encoding E. coli was >75% of the theoretical maximum, and none was released in the E. coli BL21(DE3) and media-alone conditions. In an acceptable case, the amount of payload released in the reaction(s) with ClbP-encoding E. coli was 25-75% of the theoretical maximum, and <25% of the theoretical maximum was released in the E. coli BL21(DE3) and media-alone conditions. In a non-preferred case, the amount of payload released in the reactions(s) with ClbP-encoding E. coli was <25% of the theoretical maximum, and >25% of the theoretical maximum was released in the E. coli BL21(DE3) and media-alone conditions.

[3] = tested on: E. coli Nissle 1917; experiment: Payload release in the presence of fecal matter, ClbP positive E. coli; format: cell-based; conditions: 10 μM compound, anaerobic, 37° C., 20 h, LCMS
Excerpt: as §2, §3, §4, §5

[4] = tested on: E. coli BL21(DE3); experiment: Cell-based assay with ClbP with LCMS, ClbP negative strain; conditions: 10 μM compound, 37° C., 20 h
Method in brief: as §1

[5] = tested on: CT26.CL25 cells; experiment: Cell viability readout (CellTiter-Glo) with bacteria-free media; format: cell-based, mouse; conditions: 10 nM compound, CT26.CL25 cells, 72 h, CellTiter-Glo
Method: Example 100: Cell-Based Assay of Bacterial Enzymes with Mammalian CT26.CL25 Mouse Colorectal Carcinoma Viability Readout
Bacteria-free media was incubated with the indicated test compound. ((R)—N1-(2-(methylamino)ethyl)-2-octanamidosuccinamide, a recognition element-linker conjugate lacking a payload, was serially diluted 1:1000 in DMSO and […] in medium+10% FBS to give a final concentration of 10 nM. Compound 35, Compound 76, Compound 77, Compound 78, Compound 79, and SN-38 were serially diluted 1:1000 in DMSO and 1:1000 in medium to give a final concentration of 10 nM, and then the bacteria-free supernatants were tested for their ability to kill mammalian cells. As an additional control, the test compound will also be incubated with bacteria-free media. The above steps can also be performed in the presence of E. coli (CFT073 ATCC 700928, Nissle 1917, or BL21 (DE3)) to effect cleavage of the conjugates of the application.
On Day 1, CT26.CL25 cells (15,000 cells/well) were seeded in triplicate into a 24 well plate and incubated overnight in 100 μL of complete medium. The reactions (bacteria or media blank) was pelleted by centrifugation, and then the supernatant was passed through a 0.2 μm sterile filter to remove residual bacteria.
On Day 2, 300 μL of a 10 nM solution of each compound in media were applied to separate wells of CT26.CL25 cells as prepared on Day 1. The cells were incubated at 37° C. for 72 h. After this point, viability was assessed using a CellTiter-Glo kit.
Binning of the compounds was achieved by measuring cell growth or arrest (e.g. remaining cells are >90% viable, >80% viable, >70% viable, >60% viable, >50% viable, >40% viable, >30% viable, >20% viable, or >10% viable).

| SMILES | % Remaining in ClbP Positve Relative to Media-Only ([1]; ClbP-encoding E. coli, 10 μM compound, 37° C., 20 h) | Difference between the ClbP Positive and ClbP Negative release profiles ([1]; conclusion from Table 4) | % payload released in ClbP negative (BL21 DE3) at 1:1 ratio of E. coli to fecal bacteria [2] [%] | % payload released in ClbP positive (Nissle 1917) at 1:1 ratio of E. coli to fecal bacteria [3] [%] | % Remaining in ClbP Negative Relative to Media-Only [4] | Bacteria-free media (Luminescence, average of three runs) [5] |
| --- | --- | --- | --- | --- | --- | --- |
| CCCCCCCC(=O)N[C@H](CC(N)=O)C(=O)NCCCC(=O)OCn1cc(F)c(=O)[nH]c1=O [Example 72B, (5-fluoro-2,4-dioxo-3,4-dihydropyrimidin-1(2H)-yl)methyl (R)-4-(4-amino-2-octanamido-4-oxobutanamido)butanoate] | ++ (<25% compound remaining in the 20 μM WT ClbP reaction relative to the control) | particularly favorable difference | 5.4 | 41.1 | − (>75% compound remaining in the 20 μM WT ClbP reaction relative to the no-enzyme control) |  |
| CCCCCCCC(=O)N[C@H](CC(N)=O)C(=O)NCCN(C)C(=O)Oc1ccc2nc3c(c(CC)c2c1)Cn1c-3cc2c(c1=O)COC(=O)[C@]2(O)CC [Example 76, (S)-4,11-diethyl-4-hydroxy-3,14-dioxo-3,4,12,14-tetrahydro-1H-pyrano[3′,4′:6,7]indolizino[1,2-b]quinolin-9-yl (2-((R)-4-amino-2-octanamido-4-oxobutanamido)ethyl)(methyl)carbamate] |  |  | 0 | 25 |  | 282345 |
| CCCCCCNC(=O)N[C@H](CC(N)=O)C(=O)NCCN(C)C(=O)Oc1ccc2nc3c(c(CC)c2c1)Cn1c-3cc2c(c1=O)COC(=O)[C@]2(O)CC [Example 77, (S)-4,11-diethyl-4-hydroxy-3,14-dioxo-3,4,12,14-tetrahydro-1H-pyrano[3′,4′:6,7]indolizino[1,2-b]quinolin-9-yl (2-((R)-4-amino-2-(3-hexylureido)-4-oxobutanamido)ethyl)(methyl)carbamate] |  |  | 0 | 0 |  | 345334 |
| CCc1c2c(nc3ccc(OC(=O)N(C)CCNC(=O)[C@@H](CC(N)=O)NC(=O)CCCc4ccccc4)cc13)-c1cc3c(c(=O)n1C2)COC(=O)[C@]3(O)CC [Example 78, (S)-4,11-diethyl-4-hydroxy-3,14-dioxo-3,4,12,14-tetrahydro-1H-pyrano[3′,4′:6,7]indolizino[1,2-b]quinolin-9-yl (2-((R)-4-amino-4-oxo-2-(4-phenylbutanamido)butanamido)ethyl)(methyl)carbamate] |  |  | 0 | 0 |  | 317645 |
| CCCCCCCC(=O)N[C@H](CC(N)=O)C(=O)NCCN(C)C(=O)O[C@]1(CC)C(=O)OCc2c1cc1n(c2=O)Cc2c-1nc1ccc(O)cc1c2CC [Example 79, (S)-4,11-diethyl-9-hydroxy-3,14-dioxo-3,4,12,14-tetrahydro-1H-pyrano[3′,4′:6,7]indolizino[1,2-b]quinolin-4-yl (2-((R)-4-amino-2-octanamido-4-oxobutanamido)ethyl)(methyl)carbamate] |  |  | 0 | 0 |  | 288245 |
